Key:
angiogenesis = conditions: cited from earlier work
[1] = Bond strength of tributyrin/cyanoacrylate blend on costal cartilage (Nene MC3000); format: physicochemical; conditions: 5% to 50% (w/w) tributyrin in cyanoacrylate; held 1 minute, cured an additional hour in aqueous conditions
Experimental: 0.5 g of the sterile tributyrin was added to cyanoacrylate (9.5 g) to produce a 5% (w/w) blend in a sterile plastic universal tube. This was mixed for 2 minutes to ensure a homogenous blend. 40 μl aliquots of the blended adhesive were applied to freshly cut surfaces of costal cartilage. The two surfaces were held together for 1 minute allowing fixation and curing was allowed to continue for an additional hour in aqueous conditions. The bond strength was tested using a Nene MC3000 machine, where the applied force required to separate the bonded pieces of cartilage was recorded.

[2] = Release of tributyrin from cured blended adhesive disks into water, gas chromatography; format: physicochemical; conditions: 5% w/w tributyrin cyanoacrylate sample; 2 ml water, 50° C., 1, 5 or 7 days with continuous agitation
Experimental: 0.5g of the sterile tributyrin was added to cyanoacrylate (9.5 g) to produce a 5% (w/w) blend in a sterile plastic universal tube. This was mixed for 2 minutes to ensure a homogenous blend. Small disks of the blended adhesive were cast onto a basic solution (dilute triethylamine 0.1% aq). The disks were removed, washed briefly and dried. The disks were then placed into 2 ml water and stored at 50° C. for 1, 5 or 7 days with continuous agitation. The water was removed then added to 2 mls dichloromethane in order to extract any released tributyrin. The dichloromethane layer was analysed using gas chromatography and the amount of tributyrin recorded. The disks were dried and then placed into fresh water at 50° C. for an additional day. The amount of tributyrin released into the fresh water was measured as described for the first samples.

[3] = Premature curing of cyanoacrylate by angiogenic agent; format: physicochemical; conditions: in combination with cyanoacrylate

Row | Compound | local release sufficient to achieve the desired angiogenic effect (angiogenesis) [ng] | adhesive property (bond strength; applied force required to separate the bonded pieces of cartilage) [1] | tributyrin released from cured adhesive disks [2] | premature cure of cyanoacrylate [3]
1 | CCCC(=O)O [butyric acid, butanoic acid] | 10 to 1000 |  |  | 
2 | CCCC(=O)OCC(COC(=O)CCC)OC(=O)CCC [tributyrin, glcerol tributyrate; 1,2,3-(propyl)tributanoate] |  | without an unacceptable loss of adhesive property | released from a 5% w/w tributyrin cyanoacrylate sample over a 7 day period | do not cause cyanoacrylate to prematurely cure
